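Compound exposure: 48 hours, 5 concentrations, 96-well plates. Definition used: TGI = concentration required for complete inhibition of growth.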
System: KM12 colon
Test: NCI-60 cell line screen, 48 h

First: O=C(NCCOC(=O)OCCNC(=O)NC1CCCCC1)NC1CCCCC1
Second: C[C@]1(O)CC[C@H]2[C@@H]3CCc4cc(O)ccc4[C@H]3CC[C@@]21C
The TGI of the first is higher: greater than 100 µM for the first, 12.1 µM for the second.

System: RXF 393 renal
Test: NCI-60 cell line screen, 48 h

First: COC(=O)[C@]12CC[C@H]3CN(C(=O)OCc4ccccc4)[C@H]([C@H]31)[C@H](c1ccco1)N2
Second: C[C@]1(O)CC[C@H]2[C@@H]3CCc4cc(O)ccc4[C@H]3CC[C@@]21C
The TGI of the first is higher: greater than 100 µM for the first, 4.05 µM for the second.

Going from `O=C(C=P(c1ccccc1)(c1ccccc1)c1ccccc1)c1ccc(-c2cccc([N+](=O)[O-])c2)cc1` to `O=C1NC2c3c(I)sc(I)c3/C(=N\O)C2O1` (configuration not stated), the TGI rises from 9.34 µM to 44.5 µM (4.8-fold).

Compound `O=C(NCCOC(=O)OCCNC(=O)NC1CCCCC1)NC1CCCCC1` has a TGI greater than 100 µM.

System: HL-60(TB) leukemia
Test: NCI-60 cell line screen, 48 h

First: COC(=O)[C@]12CC[C@H]3CN(C(=O)OCc4ccccc4)[C@H]([C@H]31)[C@H](c1ccco1)N2
Second: C[C@]1(O)CC[C@H]2[C@@H]3CCc4cc(O)ccc4[C@H]3CC[C@@]21C
The TGI of the first is 24-fold higher: 84.4 µM for the first, 3.49 µM for the second.

First: O=C(C=P(c1ccccc1)(c1ccccc1)c1ccccc1)c1ccc(-c2cccc([N+](=O)[O-])c2)cc1
Second: O=C1NC2c3c(I)sc(I)c3/C(=N\O)C2O1 (configuration not stated)
The TGI of the first is 16-fold lower: 5.08 µM for the first, 83.5 µM for the second.

Work on `O=C(NCCOC(=O)OCCNC(=O)NC1CCCCC1)NC1CCCCC1` yielded a TGI greater than 100 µM.

System: SF-295 CNS
Test: NCI-60 cell line screen, 48 h

Compared with `COC(=O)[C@]12CC[C@H]3CN(C(=O)OCc4ccccc4)[C@H]([C@H]31)[C@H](c1ccco1)N2`, `C[C@]1(O)CC[C@H]2[C@@H]3CCc4cc(O)ccc4[C@H]3CC[C@@]21C` is lower in TGI: greater than 100 µM for the first, 13 µM for the second.

`O=C(C=P(c1ccccc1)(c1ccccc1)c1ccccc1)c1ccc(-c2cccc([N+](=O)[O-])c2)cc1` and `O=C1NC2c3c(I)sc(I)c3/C(=N\O)C2O1` (configuration not stated) cannot be ordered by TGI: greater than 100 µM for the first, greater than 100 µM for the second.

Compound `O=C(NCCOC(=O)OCCNC(=O)NC1CCCCC1)NC1CCCCC1` has a TGI greater than 100 µM.

System: PC-3 prostate
Test: NCI-60 cell line screen, 48 h

`COC(=O)[C@]12CC[C@H]3CN(C(=O)OCc4ccccc4)[C@H]([C@H]31)[C@H](c1ccco1)N2` and `C[C@]1(O)CC[C@H]2[C@@H]3CCc4cc(O)ccc4[C@H]3CC[C@@]21C` cannot be ordered by TGI: greater than 100 µM for the first, greater than 100 µM for the second.

Going from `O=C(C=P(c1ccccc1)(c1ccccc1)c1ccccc1)c1ccc(-c2cccc([N+](=O)[O-])c2)cc1` to `O=C1NC2c3c(I)sc(I)c3/C(=N\O)C2O1` (configuration not stated), the TGI rises from 18.6 µM to greater than 100 µM.

In the case of `O=C(NCCOC(=O)OCCNC(=O)NC1CCCCC1)NC1CCCCC1`, the TGI is reported as greater than 100 µM.

System: MCF7 breast
Test: NCI-60 cell line screen, 48 h

`COC(=O)[C@]12CC[C@H]3CN(C(=O)OCc4ccccc4)[C@H]([C@H]31)[C@H](c1ccco1)N2` and `C[C@]1(O)CC[C@H]2[C@@H]3CCc4cc(O)ccc4[C@H]3CC[C@@]21C` cannot be ordered by TGI: greater than 100 µM for the first, greater than 100 µM for the second.

First: O=C(C=P(c1ccccc1)(c1ccccc1)c1ccccc1)c1ccc(-c2cccc([N+](=O)[O-])c2)cc1
Second: O=C1NC2c3c(I)sc(I)c3/C(=N\O)C2O1 (configuration not stated)
The TGI of the first is lower: 10.6 µM for the first, greater than 100 µM for the second.

`O=C(NCCOC(=O)OCCNC(=O)NC1CCCCC1)NC1CCCCC1` gave a TGI greater than 100 µM.

System: SR leukemia
Test: NCI-60 cell line screen, 48 h

Going from `COC(=O)[C@]12CC[C@H]3CN(C(=O)OCc4ccccc4)[C@H]([C@H]31)[C@H](c1ccco1)N2` to `C[C@]1(O)CC[C@H]2[C@@H]3CCc4cc(O)ccc4[C@H]3CC[C@@]21C`, the TGI falls from greater than 100 µM to 0.668 µM.

Compared with `O=C(C=P(c1ccccc1)(c1ccccc1)c1ccccc1)c1ccc(-c2cccc([N+](=O)[O-])c2)cc1`, `O=C1NC2c3c(I)sc(I)c3/C(=N\O)C2O1` (configuration not stated) is higher in TGI: 8.09 µM for the first, greater than 100 µM for the second.

Compound `O=C(NCCOC(=O)OCCNC(=O)NC1CCCCC1)NC1CCCCC1` has a TGI greater than 100 µM.

System: NCI-H522 lung
Test: NCI-60 cell line screen, 48 h

First: COC(=O)[C@]12CC[C@H]3CN(C(=O)OCc4ccccc4)[C@H]([C@H]31)[C@H](c1ccco1)N2
Second: C[C@]1(O)CC[C@H]2[C@@H]3CCc4cc(O)ccc4[C@H]3CC[C@@]21C
The TGI of the first is 7.7-fold higher: 39.1 µM for the first, 5.08 µM for the second.

Work on `O=C(NCCOC(=O)OCCNC(=O)NC1CCCCC1)NC1CCCCC1` yielded a TGI greater than 100 µM.

System: UO-31 renal
Test: NCI-60 cell line screen, 48 h

First: COC(=O)[C@]12CC[C@H]3CN(C(=O)OCc4ccccc4)[C@H]([C@H]31)[C@H](c1ccco1)N2
Second: C[C@]1(O)CC[C@H]2[C@@H]3CCc4cc(O)ccc4[C@H]3CC[C@@]21C
The TGI of the first is higher: greater than 100 µM for the first, 61.2 µM for the second.

First: O=C(C=P(c1ccccc1)(c1ccccc1)c1ccccc1)c1ccc(-c2cccc([N+](=O)[O-])c2)cc1
Second: O=C1NC2c3c(I)sc(I)c3/C(=N\O)C2O1 (configuration not stated)
The TGI of the first is 6.8-fold lower: 4.8 µM for the first, 32.7 µM for the second.

Work on `O=C(NCCOC(=O)OCCNC(=O)NC1CCCCC1)NC1CCCCC1` yielded a TGI greater than 100 µM.

System: UACC-257 melanoma
Test: NCI-60 cell line screen, 48 h

`COC(=O)[C@]12CC[C@H]3CN(C(=O)OCc4ccccc4)[C@H]([C@H]31)[C@H](c1ccco1)N2` and `C[C@]1(O)CC[C@H]2[C@@H]3CCc4cc(O)ccc4[C@H]3CC[C@@]21C` are within 1.5-fold of each other in TGI: 81.4 µM for the first, 77.1 µM for the second.

Compared with `O=C(C=P(c1ccccc1)(c1ccccc1)c1ccccc1)c1ccc(-c2cccc([N+](=O)[O-])c2)cc1`, `O=C1NC2c3c(I)sc(I)c3/C(=N\O)C2O1` (configuration not stated) is higher in TGI: 15.8 µM for the first, greater than 100 µM for the second.

`O=C(NCCOC(=O)OCCNC(=O)NC1CCCCC1)NC1CCCCC1` gave a TGI greater than 100 µM.

System: MALME-3M melanoma
Test: NCI-60 cell line screen, 48 h

Going from `COC(=O)[C@]12CC[C@H]3CN(C(=O)OCc4ccccc4)[C@H]([C@H]31)[C@H](c1ccco1)N2` to `C[C@]1(O)CC[C@H]2[C@@H]3CCc4cc(O)ccc4[C@H]3CC[C@@]21C`, the TGI falls from 80.2 µM to 0.948 µM (85-fold).

Compared with `O=C(C=P(c1ccccc1)(c1ccccc1)c1ccccc1)c1ccc(-c2cccc([N+](=O)[O-])c2)cc1`, `O=C1NC2c3c(I)sc(I)c3/C(=N\O)C2O1` (configuration not stated) is 5.4-fold higher in TGI: 9.31 µM for the first, 50.2 µM for the second.

With `O=C(NCCOC(=O)OCCNC(=O)NC1CCCCC1)NC1CCCCC1` the TGI was greater than 100 µM.

System: OVCAR-4 ovarian
Test: NCI-60 cell line screen, 48 h

Going from `COC(=O)[C@]12CC[C@H]3CN(C(=O)OCc4ccccc4)[C@H]([C@H]31)[C@H](c1ccco1)N2` to `C[C@]1(O)CC[C@H]2[C@@H]3CCc4cc(O)ccc4[C@H]3CC[C@@]21C`, the TGI rises from 31.2 µM to greater than 100 µM.

First: O=C(C=P(c1ccccc1)(c1ccccc1)c1ccccc1)c1ccc(-c2cccc([N+](=O)[O-])c2)cc1
Second: O=C1NC2c3c(I)sc(I)c3/C(=N\O)C2O1 (configuration not stated)
The TGI of the first is 9.4-fold lower: 9.52 µM for the first, 89.8 µM for the second.

With `O=C(NCCOC(=O)OCCNC(=O)NC1CCCCC1)NC1CCCCC1` the TGI was greater than 100 µM.

System: COLO 205 colon
Test: NCI-60 cell line screen, 48 h

Compared with `COC(=O)[C@]12CC[C@H]3CN(C(=O)OCc4ccccc4)[C@H]([C@H]31)[C@H](c1ccco1)N2`, `C[C@]1(O)CC[C@H]2[C@@H]3CCc4cc(O)ccc4[C@H]3CC[C@@]21C` is higher in TGI: 40.9 µM for the first, greater than 100 µM for the second.

First: O=C(C=P(c1ccccc1)(c1ccccc1)c1ccccc1)c1ccc(-c2cccc([N+](=O)[O-])c2)cc1
Second: O=C1NC2c3c(I)sc(I)c3/C(=N\O)C2O1 (configuration not stated)
The TGI of the first is 15-fold lower: 3.31 µM for the first, 48.8 µM for the second.

`O=C(NCCOC(=O)OCCNC(=O)NC1CCCCC1)NC1CCCCC1` was tested, and the TGI was greater than 100 µM.

System: NCI-H460 lung
Test: NCI-60 cell line screen, 48 h

`COC(=O)[C@]12CC[C@H]3CN(C(=O)OCc4ccccc4)[C@H]([C@H]31)[C@H](c1ccco1)N2` and `C[C@]1(O)CC[C@H]2[C@@H]3CCc4cc(O)ccc4[C@H]3CC[C@@]21C` cannot be ordered by TGI: greater than 100 µM for the first, greater than 100 µM for the second.

Going from `O=C(C=P(c1ccccc1)(c1ccccc1)c1ccccc1)c1ccc(-c2cccc([N+](=O)[O-])c2)cc1` to `O=C1NC2c3c(I)sc(I)c3/C(=N\O)C2O1` (configuration not stated), the TGI rises from 4.27 µM to greater than 100 µM.

Compound `O=C(NCCOC(=O)OCCNC(=O)NC1CCCCC1)NC1CCCCC1` has a TGI greater than 100 µM.

System: NCI-H23 lung
Test: NCI-60 cell line screen, 48 h

Compared with `COC(=O)[C@]12CC[C@H]3CN(C(=O)OCc4ccccc4)[C@H]([C@H]31)[C@H](c1ccco1)N2`, `C[C@]1(O)CC[C@H]2[C@@H]3CCc4cc(O)ccc4[C@H]3CC[C@@]21C` is higher in TGI: 42.2 µM for the first, greater than 100 µM for the second.

Going from `O=C(C=P(c1ccccc1)(c1ccccc1)c1ccccc1)c1ccc(-c2cccc([N+](=O)[O-])c2)cc1` to `O=C1NC2c3c(I)sc(I)c3/C(=N\O)C2O1` (configuration not stated), the TGI rises from 21.2 µM to 56.8 µM (2.7-fold).

`O=C(NCCOC(=O)OCCNC(=O)NC1CCCCC1)NC1CCCCC1` gave a TGI greater than 100 µM.

System: SF-539 CNS
Test: NCI-60 cell line screen, 48 h

Going from `COC(=O)[C@]12CC[C@H]3CN(C(=O)OCc4ccccc4)[C@H]([C@H]31)[C@H](c1ccco1)N2` to `O=C(C=P(c1ccccc1)(c1ccccc1)c1ccccc1)c1ccc(-c2cccc([N+](=O)[O-])c2)cc1`, the TGI falls from greater than 100 µM to 15.3 µM.
